Assay results published in publication PMC5490157 (DARU Journal of Pharmaceutical Sciences, 2017).
Where “and” joins values, the source holds several entries; their conditions need not be identical. Equal entries are not always repeated. Marks after values point to notes of the source that are not given here.

Tests used:
[1] = Isolated perfused rat liver, single-pass perfusion with MRZ-containing Krebs-Henselit buffer, control vs MDMA-pretreated rats; perfusate analysed by HPLC; conditions: for Mean outlet perfusate concentration at four latest samples / Metabolic ratio (metabolite concentration divided by MRZ concentration) at four latest sampling time intervals: mean ± SD; for Decrease in metabolite concentration, treatment vs control: four latest samples; for Decrease in metabolic ratio, treatment vs control: four latest sampling time intervals; for CLh (hepatic clearance) / CLint (intrinsic clearance): ±SD; for AUC(0-t) at 1 μg/ml: rat, isolated perfused rat liver (single-pass)
CYP2D6 [2] = assay: Effect of MDMA on CYP2D6-mediated MRZ metabolism (8-OH formation) in isolated perfused rat liver; conditions: MDMA 3 mg/kg IP 1 hour before MRZ perfusion; inferred from 8-OH formation
CYP2D6 [3] = test system: CYP2D6; parameters: method as in PMID 16714321; conditions: irreversible inhibition of CYP2D6; cited from earlier work
CYP3A4 = assay: Effect of MDMA on CYP3A4-mediated MRZ metabolism (NDES formation) in isolated perfused rat liver; conditions: MDMA 3 mg/kg IP 1 hour before MRZ perfusion; inferred from NDES formation
[4] = MDMA 3 mg/kg IP 1 hour before MRZ
[5] = control group (n = 6), MRZ inlet 1 μg/ml
[6] = control group, individual rats 1-6, metabolite formed from MRZ 1 μg/ml
[7] = treatment group (MDMA 3 mg/kg IP 1 hour before), individual rats 1-6
[8] = treatment group (MDMA 3 mg/kg IP 1 hour before), mean (n = 6)
[9] = treatment group (n = 6), MDMA 3 mg/kg IP 1 hour before MRZ 1 μg/ml
[10] = treatment group (n = 6), MDMA 3 mg/kg IP 1 hour before

What does the source list for `CN1CCN2c3ncc(O)cc3Cc3ccccc3C2C1` (stereo not drawn) [8-OH, 8-hydroxymirtazapine]?
Decrease in AUC (0–120) of metabolite, treatment vs control [1, 4]: 70%; Mean outlet perfusate concentration at four latest samples [1, 5]: 10.3 ± 3.2 ng/mL; Metabolic ratio (metabolite concentration divided by MRZ concentration) at four latest sampling time intervals ([1]; control group (n = 6)): 0.1 ± 0.05; AUC (0–120) 8-OH Control [1, 6]: 2124.9 ng·min/mL and 1398.9 ng·min/mL and 1960.2 ng·min/mL and 1674.1 ng·min/mL and 610.9 ng·min/mL and 588.2 ng·min/mL; AUC (0–120) 8-OH Control, MEAN ([1]; control group, mean (n = 6)): 1392.9 ng·min/mL; Decrease in metabolite concentration, treatment vs control [1, 4]: 50%; Decrease in metabolic ratio, treatment vs control [1, 4]: 83%; AUC (0–120) 8-OH Treatment [1, 7]: 287.5 ng·min/mL and 398.6 ng·min/mL and 449.2 ng·min/mL and 415.4 ng·min/mL and 371.3 ng·min/mL and 920.5 ng·min/mL; AUC (0–120) 8-OH Treatment, MEAN [1, 8]: 473.7* ng.min/ml; Mean outlet perfusate concentration at four latest samples [1, 9]: 4.7 ± 2.9 ng/mL; Metabolic ratio (metabolite concentration divided by MRZ concentration) at four latest sampling time intervals [1, 10]: 0.02 ± 0.008

For `CNC(C)Cc1ccc2c(c1)OCO2` (stereo not drawn) [MDMA, 3,4-methylenedioxymethamphetamine], which “Effect on CYP2D6 hepatic isoenzyme” value (CYP2D6 [2]) is on record?
The value was “inhibitory effects”.

And the “Time after MDMA administration at which mechanism-based inhibition of most CYP2D6 isoenzymes is demonstrated” value (CYP2D6 [3])?
Its value is ≤ 1 h.

What about the “Effect on CYP3A4 hepatic isoenzyme” value (CYP3A4) of the same molecule?
Its value is “inhibitory effects”.

For `CN1CCN2c3ncccc3Cc3ccccc3C2C1` (stereo not drawn) [MRZ, Mirtazapine, reference compound], which “Decrease in CLint, treatment vs control” value [1, 4] is on record?
The value was 60%.

And the “Increase in AUC (0–120) of parent drug, treatment vs control” value [1, 4]?
The value was 50%.

What about the “Mean outlet perfusate concentration at four latest samples” value [1, 5] of the same molecule?
The value was 131.9 ± 56.9 ng/mL.

And the “CLh (hepatic clearance)” value ([1]; control group (n = 6), CLh=Q×E, Q 8.3 ml/min)?
Its value is 7.2 ± 0.5 mL/min and 7.21 ± 0.47 mL/min.

And the “CLint (intrinsic clearance)” value ([1]; control group (n = 6), CLint=E×Q/F)?
The value was 63.4 ± 25.8 mL/min and 63.4 ± 25.81 mL/min.

And the “AUC (0–120) MRZ Control” value ([1]; control group, individual rats 1-6)?
Its value is 9928.7 ng.min/ml and 16,443.6 ng.min/ml and 10,611.4 ng.min/ml and 13,295.1 ng.min/ml and 19,497.1 ng.min/ml.

What about the AUC(0-t) at 1 μg/ml ([1]; AUC (0–120) MRZ Control, MEAN, control group, mean (n = 6)) of the same molecule?
The AUC(0-t) at 1 μg/ml was 237 ng·h/mL.

And the AUC(0-t) at 1 μg/ml ([1]; AUC (0–120) MRZ Control, control group, individual rats 1-6)?
The AUC(0-t) at 1 μg/ml was 259 ng·h/mL.

And the AUC(0-t) at 1 μg/ml ([1]; ip, 3 mg/kg, AUC (0–120) MRZ Treatment, MEAN, treatment group (MDMA 3 mg/kg IP 1 hour before), mean (n = 6))?
Its AUC(0-t) at 1 μg/ml is 358 ng·h/mL.

And the AUC(0-t) at 1 μg/ml ([1]; ip, 3 mg/kg, AUC (0–120) MRZ Treatment, treatment group (MDMA 3 mg/kg IP 1 hour before), individual rats 1-6)?
Its AUC(0-t) at 1 μg/ml is 401 ng·h/mL.

What about the “AUC (0–120) MRZ Treatment” value [1, 7] of the same molecule?
The value was 18,031.1 ng.min/ml and 17,675.6 ng.min/ml and 23,553.7 ng.min/ml and 23,063.4 ng.min/ml and 22,680.5 ng.min/ml.

And the “Mean outlet perfusate concentration at four latest samples” value [1, 9]?
The value was 236.8 ± 44.7 ng/mL.

And the “CLh (hepatic clearance)” value [1, 10]?
Its value is 6.3 ± 0.4 mL/min and 6.33 ± 0.37 mL/min.

What about the “CLint (intrinsic clearance)” value [1, 10] of the same molecule?
Its value is 27.7 ± 6.3 mL/min and 27.71 ± 6.26 mL/min.

What does the source list for `c1ccc2c(c1)Cc1cccnc1N1CCNCC21` (stereo not drawn) [NDES, N-desmethylmirtazapine]?
Decrease in AUC (0–120) of metabolite, treatment vs control [1, 4]: 60%; Mean outlet perfusate concentration at four latest samples [1, 5]: 188.6 ± 63.44 ng/mL; Metabolic ratio (metabolite concentration divided by MRZ concentration) at four latest sampling time intervals ([1]; control group (n = 6)): 1.7 ± 0.8; AUC (0–120) NDES Control [1, 6]: 28,525.2 ng.min/ml and 22,505.4 ng.min/ml and 15,171.6 ng.min/ml and 18,839.8 ng.min/ml and 11,195.2 ng.min/ml and 12,075.7 ng.min/ml; AUC (0–120) NDES Control, MEAN ([1]; control group, mean (n = 6)): 18,052.1 ng.min/ml; Decrease in metabolite concentration, treatment vs control [1, 4]: 50%; Decrease in metabolic ratio, treatment vs control [1, 4]: 79%; AUC (0–120) NDES Treatment [1, 7]: 593.7 ng.min/ml and 12,111.8 ng.min/ml and 15,346.2 ng.min/ml and 5860.1 ng.min/ml and 10,613.3 ng.min/ml and 3605.2 ng.min/ml; AUC (0–120) NDES Treatment, MEAN [1, 8]: 8021.7* ng.min/ml; Mean outlet perfusate concentration at four latest samples [1, 9]: 98.5 ± 64.3 ng/mL; Metabolic ratio (metabolite concentration divided by MRZ concentration) at four latest sampling time intervals [1, 10]: 0.45 ± 0.3
